Test results from patent publication US20170184604A1, “DD1ALPHA RECEPTOR AND USES THEREOF IN IMMUNE DISORDERS” (THE GENERAL HOSPITAL CORPORATION, priority 2014, published 2017).

What was measured:
[1] = system: MCF7 cells; experiment: p53-mediated induction of checkpoint proteins (western blot); assay type: cell-based, human; conditions: 10 μM
Procedure: (§1) FIGS. 6A-6E show physical association of DD1α with PD1 but not with PD-L1. (FIG. 6A) Interaction of DD1α with PD1 or DD1α. […] The bound Ig fusion proteins were detected with anti-Ig-APC. Empty vector (pcDNA3.1)-transfected cells stained with Ig proteins are shown as a negative control (gray filled) and other staining is shown as black open. (FIG. 6B) DD1α binds to both DD1α and PD1 on CD4+ T cells. Purified CD4+ T cells from Wt and DD1α−/− mice were assayed for binding to Ig fused DD1α or PD1 proteins. Cells were incubated with DD1α-Ig (open), PD1-Ig (open), or control Ig proteins (gray filled) and the bound Ig fusion proteins were detected by anti-Ig-APC. […] The bound Ig fusion proteins were detected by anti-Ig-APC. Binding amounts were determined by percentage of APC positive cells compared to control Ig protein-bound cells. (FIG. 6C) Ig-pulldown experiments show DD1α interaction with both DD1α and PD1. […] The bead bound proteins were eluted and determined by western blot analysis using anti-HA antibody (asterisks). […] The bead bound proteins were eluted and detected by western blot analysis with anti-DD1α or anti-PD1 antibody (asterisk). […] The levels of indicated proteins were analyzed by western blot analysis. Total RNAs from control siRNA or p53 siRNA transfected MCF7 cells were assessed for mRNA levels of PD1 or PD-L1 by real-time quantitative PCR. […]

[2] = biological target: mouse DD1α on mouse cells (CD4+ and CD8+ T cells, thymocytes, bone marrow-derived macrophages) (mouse) (UniProt Q9D659); experiment: cell-based or functional assay
Chain of mouse DD1α on mouse cells (CD4+ and CD8+ T cells, thymocytes, bone marrow-derived macrophages) (mouse) (Q9D659 33-308): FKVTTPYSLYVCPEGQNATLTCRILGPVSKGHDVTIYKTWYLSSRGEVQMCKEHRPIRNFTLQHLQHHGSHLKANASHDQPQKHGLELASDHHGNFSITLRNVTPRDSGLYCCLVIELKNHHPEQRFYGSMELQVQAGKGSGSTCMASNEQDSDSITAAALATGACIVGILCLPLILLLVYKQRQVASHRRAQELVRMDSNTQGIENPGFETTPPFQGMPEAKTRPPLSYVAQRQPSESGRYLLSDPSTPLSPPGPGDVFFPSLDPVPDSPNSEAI

[3] = system: Jurkat cells expressing DD1α receptor; experiment: Ig fusion protein binding to Jurkat cells; conditions: several concentrations; anti-Ig-APC detection
Procedure: Jurkat cells overexpressing DD1alpha (transfected with DD1alpha cDNA) or control Jurkat cells were assayed for binding to Ig-fused DD1α or PD-1 proteins. Cells were incubated with several different concentrations of DD1α-Ig (left panels) or PD1-Ig (right panels), and the bound Ig fusion proteins were detected by anti-Ig-APC. Binding amounts were determined by percentage of APC positive cells.

[4] = system: DD1α; experiment: Ig fusion protein-pull down assay; assay type: binding, human
Procedure: FIGS. 6A-6E show physical association of DD1α with PD1 but not with PD-L1. (FIG. 6A) Interaction of DD1α with PD1 or DD1α. […] The bound Ig fusion proteins were detected with anti-Ig-APC. Empty vector (pcDNA3.1)-transfected cells stained with Ig proteins are shown as a negative control (gray filled) and other staining is shown as black open. (FIG. 6B) DD1α binds to both DD1α and PD1 on CD4+ T cells. Purified CD4+ T cells from Wt and DD1α−/− mice were assayed for binding to Ig fused DD1α or PD1 proteins. Cells were incubated with DD1α-Ig (open), PD1-Ig (open), or control Ig proteins (gray filled) and the bound Ig fusion proteins were detected by anti-Ig-APC. […] The bound Ig fusion proteins were detected by anti-Ig-APC. Binding amounts were determined by percentage of APC positive cells compared to control Ig protein-bound cells. (FIG. 6C) Ig-pulldown experiments show DD1α interaction with both DD1α and PD1. […] The bead bound proteins were eluted and determined by western blot analysis using anti-HA antibody (asterisks). (FIG. 6D) Ig fusion proteins (control Ig, DD1α-Ig, or PD1-Ig) were incubated with lysates from Nutlin-3-treated MCF7 cells and pulled down using protein A/G agarose. The bead bound proteins were eluted and detected by western blot analysis with anti-DD1α or anti-PD1 antibody (asterisk). (FIG. 6E) p53-mediated induction of PD1 and PD-L1. MCF7 cells were treated by Nutlin-3 (10 μM) for 1 to 3 days. MCF7 cells were transfected with control siRNA or p53 siRNA for 24 hours and treated with CPT (500 nM) or DMSO (control) for 1 and 2 days. The levels of indicated proteins were analyzed by western blot analysis. Total RNAs from control siRNA or p53 siRNA transfected MCF7 cells were assessed for mRNA levels of PD1 or PD-L1 by real-time quantitative PCR. PD1 or PD-L1 mRNA levels were normalized to 36B4 expression and shown as mean±SD (n=3). Protein levels of PD1 and PD-L1 were examined in EJ-p53tet cells in the absence or presence of tetracycline (tet), ZR75-1 cells treated with CPT (500 nM), or A375 cells exposed to 13 Gy ionizing irradiation for the indicated times.
Ig fusion proteins (control Ig, DD1α-Ig, or PD1-Ig) were incubated with lysates from Nutlin-3-treated MCF7 cells and pulled down using proten A/G agarose. The bead bound proteins were eluted and detected by western blot analysis with anti-DD1α or anti-PD1 antibody.
Based on the results that both PD-1 and DD1α receptors on T cells contribute to the co-inhibitory roles for DD1α(FIG. 5), it was tested whether DD1α could physically and functionally associate with PD-1 receptor. […] To confirm the specificity of this interaction, the inventors carried out Ig fusion protein-pull down assays using lysates from PD-1, DD1α, or TIM3-transfected 293T cells. […]

[5] = system: wt- or DD1α−/− mouse CD4+ T cells; experiment: Ig fusion protein binding to CD4+ T cells from Wt and DD1α−/− mice
Procedure: as §1

[6] = system: CD4+ or CD8+ T cells from wt- or DD1α−/− mice; experiment: Mouse T cell activation assay (CFSE proliferation); assay type: cell-based
Procedure: Enriched CD4+ and CD8+ T cells from Wt and DD1α−/− mice were stimulated, with 2.5 μg/ml anti-CD3 alone or together with DD1α-Ig or control Ig. The proliferations of CD4+ T cells (top graphs) or CD8+ T cells (bottom graphs) were determined by the percentage of CFSE-diluted CD8+ cells on day 3. The levels of cytokines (IFN-γ and TNF-α) in culture supernatant on day 2 were analyzed by ELISA. The results represent mean±SD from three experiments.
The inventors have discovered that DD1αregulates T cell activation through DD1α on T cells. […] The proliferations of CD4+ T cells were determined by percentage of CFSE-diluted CD4+ cells on day 3 and IFN-γ and levels in culture supernatants on day 2 were analyzed by ELISA. […] The proliferations of CD8+ T cells were determined by percentage of CD8+ T cells containing diluted CFSE signal on day 3. The cytokine levels in culture supernatant were analyzed by ELISA on day 2.
The amount of Ig protein was kept constant at 10 μg/ml by the addition of control Ig protein. Human CD4+ or CD8+ T cells were purified from freshly isolated PBMCs using CD4+ T Cell Isolation Kit II, human or CD8+ T Cell Isolation Kit, human (Miltenyi Biotec). Mouse CD4+ and CD8+ T cells were purified from splenocytes freshly isolated from mice using CD4+ T Cell Isolation Kit II, mouse or CD8a+ T Cell Isolation Kit II, mouse (Miltenyi Biotec). Purity was confirmed to be over 90% by flow cytometry. The T cells were labeled with 1 μM CFSE, quenched by cold FBS and incubated in the anti-CD3 & Ig proteins-coated plates. On day 2 after stimulation, supernatant was collected and cytokines were assayed by ELISA. On day 3, cells were stained with anti-CD4-APC (OKT4, eBioscience for human CD4+ T cells; RM4-5, eBioscience for mouse CD4+ T cells) or anti-CD8-APC (SK1, eBioscience for human CD8+ T cells; 53-6.7, eBioscience for mouse CD8+ T cells) and then analyzed for CFSE dilution by flow cytometry.

[7] = biological target: T1, DD1α-Ig fusion protein (the extracellular region of DD1α fused with the immunoglobulin G Fc segment) (human, UniProt Q9H7M9 33-194); experiment: DD1α-Ig-coated beads on transfected 293T cells
T1 construct: also called DD1α-Fc fusion soluble protein; Fc-tagged soluble DD1α protein; not shown: mouse IgG-Fc region of the pCMV6-AC-FC vector (OriGene)
Source text: Scale bar, 50 μm. […] Scale bar, 100 μm. […] Scale bar, 50 μm.

[8] = biological target: T2, His-DD1α (33-194) (human, UniProt Q9H7M9 33-194); experiment: GST pull-down, anti-His immunoblot
T2 construct: not shown: His tag of the pRSET vector (Invitrogen)

## COc1ccc(C2=N[C@@H](c3ccc(Cl)cc3)[C@@H](c3ccc(Cl)cc3)N2C(=O)N2CCNC(=O)C2)c(OC(C)C)c1 [Nutlin-3]
[1]
  CTLA-4 and ICOSL protein levels: did not respond
  PD-1 and PD-L1 protein levels: induced

## PD-1-Ig as used on mouse T cells (Fc fusion)
[2]
  inhibition of anti-CD3-induced proliferation of mouse CD4+ T cells: 45%
  reversal of PD-1-Ig-mediated inhibition in DD1α-/- CD4+ T cells: 30%

## DD1α-Ig as used on mouse T cells (Fc fusion)
[2]
  inhibition of anti-CD3-induced proliferation of DD1α-/- mouse CD4+ or CD8+ T cells: 30%
  inhibition of anti-CD3-induced proliferation of Wt mouse CD4+ or CD8+ T cells: 50%

## PD-1-Ig: Recombinant human or mouse PD-1-Ig fusion protein from R&D Systems [reference compound]
[3]
  binding to Jurkat cells expressing DD1α receptor: bind
[4]; lysates from transfected 293T cells
  pull down of DD1α: pulled down
[4]; lysates of Nutlin-3-treated MCF7 cells
  pull down of endogenous DD1α receptor: detected
[5]
  binding to the surface of DD1α−/− CD4+ T cells compared with wt-CD4+ T cells: significantly lower
[6]; DD1α−/− CD4+ T cells
  reversal of PD-1-Ig-mediated inhibition of CD4+ T cell stimulation: ~30%
[6]; mouse CD4+ T cells, wt
  inhibition of anti-CD3-induced CD4+ T cell proliferation: ~45%

B1: DD1α-ΔIgV (immunoglobulin V domain (aa 45-168)-deleted mutant) expressed on transfected cells (receptor)
chain: FKVATPYSLYVCQTGKDAPSNCVVYPSSSQDSENITAAALATGACIVGILCLPLILLLVYKQRQAASNRRAQELVRMDSNIQGIENPGFEASPPAQGIPEAKVRHPLSYVAQRQPSESGRHLLSEPSTPLSPPGPGDVFFPSLDPVPDSPNFEVI
notes: signal peptide 1-32 left out; also called mutant lacking the IgV domain; IgV-deleted DD1α
[7]
  binding result: no binding

B2: GST-DD1α-ΔIgV (33-311, ΔIgV) (other)
chain: B1 chain
notes: also called IgV-deleted mutant; IgV-deleted DD1α (GST fusion); not shown: N-terminal GST tag and linker of pGEX-6P-1
[8]
  binding result: no binding

B3: GST-DD1α (215-311), the cytoplasmic region (other)
chain: VYKQRQAASNRRAQELVRMDSNIQGIENPGFEASPPAQGIPEAKVRHPLSYVAQRQPSESGRHLLSEPSTPLSPPGPGDVFFPSLDPVPDSPNFEVI
notes: also called the cytoplasmic region of DD1α (GST fusion); not shown: glutathione S-transferase tag of the pGEX-6P-1 vector
[8]
  binding result: no binding
